In patent US9556139B2, “6-substituted phenoxychroman carboxylic acid derivatives” (Array BioPharma Inc., priority 2008, dated 2017):

target: human DP2 (Homo sapiens (Human), UniProt Q9Y5Y4); experiment: DP-2 Binding Inhibition Assay (3H-PGD2 binding to membranes of K562 cells expressing DP2); conditions: read-out: EC50 (nM) 4% HSA; inhibition of 3H-PGD2 binding, 4% HSA
Method in brief: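 Radioligand filtration binding: ³H-PGD2 displacement from DP2-expressing K562 cell membranes, 60 min, room temperature, pH 7.4, under 0.1% BSA, 1% HSA or 4% HSA.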

human DP2, sequence (Q9Y5Y4 whole entry): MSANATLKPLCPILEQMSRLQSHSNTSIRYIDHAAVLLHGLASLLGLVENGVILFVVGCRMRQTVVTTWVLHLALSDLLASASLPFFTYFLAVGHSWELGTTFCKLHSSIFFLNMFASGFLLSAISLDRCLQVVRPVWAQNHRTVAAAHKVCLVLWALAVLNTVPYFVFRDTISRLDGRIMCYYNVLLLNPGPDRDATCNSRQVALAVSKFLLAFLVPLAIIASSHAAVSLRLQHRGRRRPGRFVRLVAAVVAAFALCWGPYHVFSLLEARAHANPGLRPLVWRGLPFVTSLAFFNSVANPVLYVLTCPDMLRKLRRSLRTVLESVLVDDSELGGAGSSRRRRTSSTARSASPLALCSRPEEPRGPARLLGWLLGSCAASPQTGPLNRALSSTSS

EC50	SMILES
298 nM	O=C(NC1CCC(c2cccc(C(F)(F)F)c2)C1)c1ccc(Oc2cc3c(cc2Cl)C(C(=O)O)CCO3)cc1 (centres unmarked) [Example 170, Sodium 6-chloro-7-(4-(3-(3-(trifluoromethyl)phenyl)cyclopentylcarbamoyl)phenoxy)chroman-4-carboxylate]
333 nM	O=C(NC1CCC(c2cccc(F)c2)C1)c1ccc(Oc2cc3c(cc2Cl)C(C(=O)O)CCO3)cc1 (centres unmarked) [Example 171, Sodium 6-chloro-7-(4-(3-(3-fluorophenyl)cyclopentylcarbamoyl)phenoxy)chroman-4-carboxylate]
282 nM	CSc1cccc(C2CCC(NC(=O)c3ccc(Oc4cc5c(cc4Cl)C(C(=O)O)CCO5)cc3)C2)c1 (centres unmarked) [Example 172, Sodium 6-chloro-7-(4-(3-(3-(methylthio)phenyl)cyclopentylcarbamoyl)phenoxy)chroman-4-carboxylate]
327 nM	O=C(NC1CCC(c2ccc(Cl)c(Cl)c2)C1)c1ccc(Oc2cc3c(cc2Cl)C(C(=O)O)CCO3)cc1 (centres unmarked) [Example 173, Sodium 6-chloro-7-(4-(3-(3,4-dichlorophenyl)cyclopentylcarbamoyl)phenoxy)chroman-4-carboxylate]
723 nM	COc1ccc(C2CCC(NC(=O)c3ccc(Oc4cc5c(cc4Cl)C(C(=O)O)CCO5)cc3)C2)cc1 (centres unmarked) [Example 174, Sodium 6-chloro-7-(4-(3-(4-methoxyphenyl)cyclopentylcarbamoyl)phenoxy)chroman-4-carboxylate]
572 nM	CSc1ccc(C2CCC(NC(=O)c3ccc(Oc4cc5c(cc4Cl)C(C(=O)O)CCO5)cc3)C2)cc1 (centres unmarked) [Example 175, Sodium 6-chloro-7-(4-(3-(4-(methylthio)phenyl)cyclopentylcarbamoyl)phenoxy)chroman-4-carboxylate]
1730 nM	O=C(NC(CO)Cc1ccc(Cl)cc1)c1ccc(Oc2cc3c(cc2Cl)C(C(=O)O)CCO3)cc1 (centres unmarked) [Example 178, Sodium 6-chloro-7-(4-(1-(4-chlorophenyl)-3-hydroxypropan-2-ylcarbamoyl)phenoxy)chroman-4-carboxylate]
1110 nM	CC(C)(C)CCNC(=O)c1ccc(Oc2cc3c(cc2Cl)C(C(=O)O)CCO3)cc1 (centres unmarked) [Example 179, Sodium 6-chloro-7-(4-(3,3-dimethylbutylcarbamoyl)phenoxy)chroman-4-carboxylate]
407 nM	O=C(NCCC1CCCCC1)c1ccc(Oc2cc3c(cc2Cl)C(C(=O)O)CCO3)cc1 (centres unmarked) [Example 180, Sodium 6-chloro-7-(4-(2-cyclohexylethylcarbamoyl)phenoxy)chroman-4-carboxylate]
331 nM	Cc1cc(C(=O)NCCc2ccc(Cl)cc2)ccc1Oc1cc2c(cc1Cl)C(C(=O)O)CCO2 (centres unmarked) [Example 181, Sodium 6-chloro-7-(4-(4-chlorophenethylcarbamoyl)-2-methylphenoxy)chroman-4-carboxylate]
151 nM	Cc1cc(C(=O)NCCc2ccc(Cl)cc2Cl)ccc1Oc1cc2c(cc1Cl)C(C(=O)O)CCO2 (centres unmarked) [Example 182, Sodium 6-chloro-7-(4-(2,4-dichlorophenethylcarbamoyl)-2-methylphenoxy)chroman-4-carboxylate]
968 nM	Cc1cc(Oc2cc3c(cc2Cl)C(C(=O)O)CCO3)ccc1C(=O)NCCc1ccc(Cl)cc1Cl (centres unmarked) [Example 183, Sodium 6-chloro-7-(4-(2,4-dichlorophenethylcarbamoyl)-3-methylphenoxy)chroman-4-carboxylate]
824 nM	O=C(NCC(O)c1ccc(Cl)cc1)c1ccc(Oc2cc3c(cc2Cl)C(C(=O)O)CCO3)cc1 (centres unmarked) [Example 184, Sodium 6-chloro-7-(4-(2-(4-chlorophenyl)-2-hydroxyethylcarbamoyl)phenoxy)chroman-4-carboxylate]
857 nM	O=C(NCC(O)c1ccccc1Cl)c1ccc(Oc2cc3c(cc2Cl)C(C(=O)O)CCO3)cc1 (centres unmarked) [Example 185, Sodium 6-chloro-7-(4-(2-(2-chlorophenyl)-2-hydroxyethylcarbamoyl)phenoxy)chroman-4-carboxylate]
538 nM	O=C(NCCC1CCCC1)c1ccc(Oc2cc3c(cc2Cl)C(C(=O)O)CCO3)cc1 (centres unmarked) [Example 186, Sodium 6-chloro-7-(4-(2-cyclopentylethylcarbamoyl)phenoxy)chroman-4-carboxylate]
649 nM	O=C(NC1COC2(CCCC2)C1)c1ccc(Oc2cc3c(cc2Cl)C(C(=O)O)CCO3)cc1 (centres unmarked) [Example 187, Sodium 7-(4-(1-oxaspiro[4.4]nonan-3-ylcarbamoyl)phenoxy)-6-chlorochroman-4-carboxylate]
759 nM	COC(CNC(=O)c1ccc(Oc2cc3c(cc2Cl)C(C(=O)O)CCO3)cc1)c1ccc(Cl)cc1 (centres unmarked) [Example 188, Sodium 6-chloro-7-(4-(2-(4-chlorophenyl)-2-methoxyethylcarbamoyl)phenoxy)chroman-4-carboxylate]
640 nM	O=C(NCCc1cccc2c1OCO2)c1ccc(Oc2cc3c(cc2Cl)C(C(=O)O)CCO3)cc1 (centres unmarked) [Example 193, sodium 7-(4-(2-(benzo[d][1,3]dioxol-4-yl)ethylcarbamoyl)phenoxy)-6-chlorochroman-4-carboxylate]
3010 nM	O=C(NCCc1cccn1-c1ccc(C(F)(F)F)cc1)c1ccc(Oc2cc3c(cc2Cl)C(C(=O)O)CCO3)cc1 (centres unmarked) [Example 194, sodium 6-chloro-7-(4-(2-(1-(4-(trifluoromethyl)phenyl)-1H-pyrrol-2-yl)ethylcarbamoyl)phenoxy)chroman-4-carboxylate]
1150 nM	O=C(NCC(F)(F)c1ccc(Cl)cc1)c1ccc(Oc2cc3c(cc2Cl)C(C(=O)O)CCO3)cc1 (centres unmarked) [Example 195, sodium 6-chloro-7-(4-(2-(4-chlorophenyl)-2,2-difluoroethylcarbamoyl)phenoxy)chroman-4-carboxylate]
269 nM	CCc1ccccc1CCNC(=O)c1ccc(Oc2cc3c(cc2Cl)C(C(=O)O)CCO3)cc1 (centres unmarked) [Example 196, sodium 6-chloro-7-(4-(2-ethylphenethylcarbamoyl)phenoxy)chroman-4-carboxylate]
689 nM	O=C(NCC(O)c1ccc(Cl)cc1Cl)c1ccc(Oc2cc3c(cc2Cl)C(C(=O)O)CCO3)cc1 (centres unmarked) [Example 197, sodium 6-chloro-7-(4-(2-(2,4-dichlorophenyl)-2-hydroxyethylcarbamoyl)phenoxy)chroman-4-carboxylate]
111 nM	O=C(NCCc1ccc(Cl)cc1OCC1CC1)c1ccc(Oc2cc3c(cc2Cl)C(C(=O)O)CCO3)cc1 (centres unmarked) [Example 199, sodium 6-chloro-7-(4-(4-chloro-2-(cyclopropyl-methoxy)phenethylcarbamoyl)phenoxy)chroman-4-carboxylate]
138 nM	CCOc1cc(Cl)c(Cl)cc1CCNC(=O)c1ccc(Oc2cc3c(cc2Cl)C(C(=O)O)CCO3)cc1 (centres unmarked) [Example 201, sodium 6-chloro-7-(4-(4,5-dichloro-2-ethoxyphenethylcarbamoyl)phenoxy)chroman-4-carboxylate]
71.6 nM	CC(C)Oc1cc(Cl)ccc1CCNC(=O)c1ccc(Oc2cc3c(cc2Cl)C(C(=O)O)CCO3)cc1 (centres unmarked) [Example 202, sodium 6-chloro-7-(4-(4-chloro-2-isopropoxy-phenethylcarbamoyl)phenoxy)chroman-4-carboxylate]

SMILES	EC50
O=C(NC1CCC(c2ccc(Cl)cc2)CC1)c1ccc(Oc2cc3c(cc2Cl)C(C(=O)O)CCO3)cc1 (centres unmarked) [Example 176, Sodium 6-chloro-7-(4-(4-(4-chlorophenyl)cyclohexylcarbamoyl)phenoxy)chroman-4-carboxylate]	339 nM
